{"source": "paper PMC3968691", "about": "(The FEBS journal, 2013)", "molecular_target": "Sts-1PGM (suppressor of T-cell receptor signaling-1 PGM domain) (Mus musculus, UniProt Q8BGG7, E490Q/H380C)", "sequence (Q8BGG7 369-638 H380C/E490Q)": "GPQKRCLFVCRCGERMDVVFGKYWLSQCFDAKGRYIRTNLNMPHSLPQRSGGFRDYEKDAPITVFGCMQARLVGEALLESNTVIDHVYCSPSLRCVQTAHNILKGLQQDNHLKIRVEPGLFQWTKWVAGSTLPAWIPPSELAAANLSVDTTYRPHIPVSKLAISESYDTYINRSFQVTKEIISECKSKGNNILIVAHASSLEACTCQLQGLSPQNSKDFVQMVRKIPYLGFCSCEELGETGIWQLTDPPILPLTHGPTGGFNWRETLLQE", "assay": "biochemical", "data": [{"smiles": "COc1ccc2c(c1)Oc1cc(OP(=O)(O)O)ccc1C21OC(=O)c2ccccc21", "note": "(stereo not shown) [OMFP]", "values": [{"measurement": "Kd", "value": 5.71, "unit": "µM"}]}]}
